Test results published in publication PMC8213057, “Targeting ALK2: An Open Science Approach to Developing Therapeutics for the Treatment of Diffuse Intrinsic Pontine Glioma” (Journal of Medicinal Chemistry, 2020).

Assays:
WNK1 = WNK1 (Homo sapiens, UniProt Q9H4A3); settings: 1 μM; Run 1, Run 2
OSR1/OXSR1 = OSR1/OXSR1 (Homo sapiens, UniProt O95747); test: biochemical; settings: read-out: % enzyme activity, 1 μM; Run 1, Run 2
KDR/VEGFR2 = KDR/VEGFR2 (Homo sapiens, UniProt P35968); test: biochemical; settings: read-out: % enzyme activity, 1 μM; Run 1, Run 2
TAOK3/JIK = target: T1, TAOK3/JIK (Homo sapiens, UniProt Q9H2K8); settings: 1 μM; Run 1, Run 2
T1 sequence (Q9H2K8 1-898): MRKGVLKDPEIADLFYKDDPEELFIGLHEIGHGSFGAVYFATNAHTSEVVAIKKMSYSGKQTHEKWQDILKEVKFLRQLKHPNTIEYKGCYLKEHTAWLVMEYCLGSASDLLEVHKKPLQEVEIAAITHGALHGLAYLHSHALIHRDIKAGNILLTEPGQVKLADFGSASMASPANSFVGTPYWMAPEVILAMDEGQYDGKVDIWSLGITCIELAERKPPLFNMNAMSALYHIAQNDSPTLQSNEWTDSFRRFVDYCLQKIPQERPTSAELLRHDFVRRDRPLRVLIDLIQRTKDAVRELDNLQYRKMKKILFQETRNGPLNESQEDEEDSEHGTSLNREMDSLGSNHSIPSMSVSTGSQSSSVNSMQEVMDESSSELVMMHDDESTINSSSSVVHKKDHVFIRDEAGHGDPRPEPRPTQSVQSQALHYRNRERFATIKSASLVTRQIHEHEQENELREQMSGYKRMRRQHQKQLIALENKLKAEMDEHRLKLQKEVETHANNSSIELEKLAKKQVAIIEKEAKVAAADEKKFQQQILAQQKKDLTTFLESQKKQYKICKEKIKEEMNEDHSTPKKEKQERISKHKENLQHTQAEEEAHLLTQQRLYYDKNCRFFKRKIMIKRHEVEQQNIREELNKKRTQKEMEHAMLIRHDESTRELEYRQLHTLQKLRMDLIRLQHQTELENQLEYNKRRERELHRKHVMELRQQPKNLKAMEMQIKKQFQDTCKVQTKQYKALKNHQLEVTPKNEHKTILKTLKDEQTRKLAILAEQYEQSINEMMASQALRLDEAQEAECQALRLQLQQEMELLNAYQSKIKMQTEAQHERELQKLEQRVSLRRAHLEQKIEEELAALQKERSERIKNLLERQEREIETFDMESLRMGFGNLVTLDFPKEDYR

TNK1 = target: T2, TNK1 (Homo sapiens, UniProt Q13470); test: biochemical; settings: read-out: % enzyme activity, 1 μM; Run 1, Run 2
T2 sequence (Q13470 1-666): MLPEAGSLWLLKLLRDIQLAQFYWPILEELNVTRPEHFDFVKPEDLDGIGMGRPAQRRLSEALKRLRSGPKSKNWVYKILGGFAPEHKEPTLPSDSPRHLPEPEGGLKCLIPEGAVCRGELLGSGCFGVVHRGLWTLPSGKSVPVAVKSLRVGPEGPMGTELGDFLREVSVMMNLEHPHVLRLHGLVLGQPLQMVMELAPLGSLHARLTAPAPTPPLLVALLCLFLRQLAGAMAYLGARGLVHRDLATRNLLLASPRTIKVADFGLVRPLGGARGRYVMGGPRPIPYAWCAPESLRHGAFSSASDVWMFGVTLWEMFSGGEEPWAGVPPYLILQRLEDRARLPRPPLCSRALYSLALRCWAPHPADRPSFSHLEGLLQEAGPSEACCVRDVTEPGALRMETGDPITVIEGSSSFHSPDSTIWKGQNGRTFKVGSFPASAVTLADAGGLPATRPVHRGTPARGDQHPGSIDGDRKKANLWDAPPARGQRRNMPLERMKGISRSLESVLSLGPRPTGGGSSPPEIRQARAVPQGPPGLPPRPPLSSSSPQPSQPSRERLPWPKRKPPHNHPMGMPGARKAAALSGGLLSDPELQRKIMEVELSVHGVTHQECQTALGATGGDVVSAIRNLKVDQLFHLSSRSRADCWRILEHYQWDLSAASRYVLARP

P38d/MAPK13 = target: T3, P38d/MAPK13 (Homo sapiens, UniProt O15264); settings: 1 μM; Run 1, Run 2
T3 sequence (O15264 1-365): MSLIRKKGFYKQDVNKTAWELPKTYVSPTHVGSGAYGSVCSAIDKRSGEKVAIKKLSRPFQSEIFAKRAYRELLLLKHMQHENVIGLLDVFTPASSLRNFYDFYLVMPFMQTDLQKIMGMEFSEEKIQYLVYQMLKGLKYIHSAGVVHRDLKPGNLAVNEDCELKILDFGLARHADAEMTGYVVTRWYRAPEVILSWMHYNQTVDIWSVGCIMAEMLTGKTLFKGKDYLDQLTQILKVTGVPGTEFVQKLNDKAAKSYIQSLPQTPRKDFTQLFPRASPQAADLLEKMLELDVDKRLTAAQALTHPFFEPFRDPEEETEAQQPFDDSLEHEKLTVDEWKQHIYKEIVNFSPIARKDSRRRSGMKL

GRK2 = target: T4, GRK2 (Homo sapiens, UniProt P25098); test: biochemical; settings: read-out: % enzyme activity, 1 μM; Run 1, Run 2
T4 sequence (P25098 1-689): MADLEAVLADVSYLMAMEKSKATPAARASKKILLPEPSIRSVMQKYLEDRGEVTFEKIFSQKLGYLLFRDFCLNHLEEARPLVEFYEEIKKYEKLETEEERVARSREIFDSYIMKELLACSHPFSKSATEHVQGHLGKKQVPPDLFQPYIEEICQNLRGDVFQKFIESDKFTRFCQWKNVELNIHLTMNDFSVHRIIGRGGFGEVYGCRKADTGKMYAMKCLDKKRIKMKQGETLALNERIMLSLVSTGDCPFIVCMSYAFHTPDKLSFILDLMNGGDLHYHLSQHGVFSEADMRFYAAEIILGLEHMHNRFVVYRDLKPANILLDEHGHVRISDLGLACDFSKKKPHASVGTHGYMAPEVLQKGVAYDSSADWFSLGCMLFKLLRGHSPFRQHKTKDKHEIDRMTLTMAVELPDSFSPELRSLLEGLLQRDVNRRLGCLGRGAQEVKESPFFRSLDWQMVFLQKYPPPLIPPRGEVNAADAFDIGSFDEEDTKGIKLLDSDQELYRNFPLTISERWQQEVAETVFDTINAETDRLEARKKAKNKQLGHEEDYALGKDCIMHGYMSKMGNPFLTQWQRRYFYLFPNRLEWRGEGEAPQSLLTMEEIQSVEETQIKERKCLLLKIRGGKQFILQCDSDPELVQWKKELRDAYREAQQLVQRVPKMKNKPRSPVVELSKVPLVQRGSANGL

COT1/MAP3K8 = COT1/MAP3K8 (Homo sapiens, UniProt P41279); settings: 1 μM; Run 1, Run 2
GRK6 = GRK6 (Homo sapiens, UniProt P43250); settings: 1 μM; Run 1, Run 2
Chain of GRK6 (P43250 whole entry): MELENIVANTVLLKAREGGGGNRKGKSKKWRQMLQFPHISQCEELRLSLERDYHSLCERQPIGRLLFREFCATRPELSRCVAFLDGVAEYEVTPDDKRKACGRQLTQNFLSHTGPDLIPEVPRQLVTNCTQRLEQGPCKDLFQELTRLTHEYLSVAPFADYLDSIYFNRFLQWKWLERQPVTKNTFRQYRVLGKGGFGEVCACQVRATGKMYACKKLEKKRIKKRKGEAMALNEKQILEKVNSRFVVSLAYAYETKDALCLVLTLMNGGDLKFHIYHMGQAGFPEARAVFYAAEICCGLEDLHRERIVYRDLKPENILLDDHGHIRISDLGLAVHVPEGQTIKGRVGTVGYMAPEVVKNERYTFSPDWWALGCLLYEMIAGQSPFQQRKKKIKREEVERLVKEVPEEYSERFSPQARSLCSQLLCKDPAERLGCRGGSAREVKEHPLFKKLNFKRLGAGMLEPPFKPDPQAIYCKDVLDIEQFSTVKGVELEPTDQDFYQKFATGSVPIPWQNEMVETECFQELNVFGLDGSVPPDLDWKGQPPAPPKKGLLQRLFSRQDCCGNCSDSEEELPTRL

Chain of OSR1/OXSR1 (O95747 whole entry): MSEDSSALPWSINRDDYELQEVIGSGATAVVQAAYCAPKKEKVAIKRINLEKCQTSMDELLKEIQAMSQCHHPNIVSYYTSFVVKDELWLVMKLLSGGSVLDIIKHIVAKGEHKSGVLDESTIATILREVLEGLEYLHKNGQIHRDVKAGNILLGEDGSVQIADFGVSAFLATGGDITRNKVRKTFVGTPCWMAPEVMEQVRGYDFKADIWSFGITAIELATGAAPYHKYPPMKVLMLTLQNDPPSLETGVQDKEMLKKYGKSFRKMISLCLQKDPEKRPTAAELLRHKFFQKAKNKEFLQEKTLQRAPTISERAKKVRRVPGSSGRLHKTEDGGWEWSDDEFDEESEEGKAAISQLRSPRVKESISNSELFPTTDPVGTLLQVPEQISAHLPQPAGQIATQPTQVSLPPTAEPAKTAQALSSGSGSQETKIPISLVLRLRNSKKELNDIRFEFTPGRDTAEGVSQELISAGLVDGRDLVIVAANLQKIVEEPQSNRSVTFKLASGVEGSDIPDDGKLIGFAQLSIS
Chain of KDR/VEGFR2 (P35968 20-1356): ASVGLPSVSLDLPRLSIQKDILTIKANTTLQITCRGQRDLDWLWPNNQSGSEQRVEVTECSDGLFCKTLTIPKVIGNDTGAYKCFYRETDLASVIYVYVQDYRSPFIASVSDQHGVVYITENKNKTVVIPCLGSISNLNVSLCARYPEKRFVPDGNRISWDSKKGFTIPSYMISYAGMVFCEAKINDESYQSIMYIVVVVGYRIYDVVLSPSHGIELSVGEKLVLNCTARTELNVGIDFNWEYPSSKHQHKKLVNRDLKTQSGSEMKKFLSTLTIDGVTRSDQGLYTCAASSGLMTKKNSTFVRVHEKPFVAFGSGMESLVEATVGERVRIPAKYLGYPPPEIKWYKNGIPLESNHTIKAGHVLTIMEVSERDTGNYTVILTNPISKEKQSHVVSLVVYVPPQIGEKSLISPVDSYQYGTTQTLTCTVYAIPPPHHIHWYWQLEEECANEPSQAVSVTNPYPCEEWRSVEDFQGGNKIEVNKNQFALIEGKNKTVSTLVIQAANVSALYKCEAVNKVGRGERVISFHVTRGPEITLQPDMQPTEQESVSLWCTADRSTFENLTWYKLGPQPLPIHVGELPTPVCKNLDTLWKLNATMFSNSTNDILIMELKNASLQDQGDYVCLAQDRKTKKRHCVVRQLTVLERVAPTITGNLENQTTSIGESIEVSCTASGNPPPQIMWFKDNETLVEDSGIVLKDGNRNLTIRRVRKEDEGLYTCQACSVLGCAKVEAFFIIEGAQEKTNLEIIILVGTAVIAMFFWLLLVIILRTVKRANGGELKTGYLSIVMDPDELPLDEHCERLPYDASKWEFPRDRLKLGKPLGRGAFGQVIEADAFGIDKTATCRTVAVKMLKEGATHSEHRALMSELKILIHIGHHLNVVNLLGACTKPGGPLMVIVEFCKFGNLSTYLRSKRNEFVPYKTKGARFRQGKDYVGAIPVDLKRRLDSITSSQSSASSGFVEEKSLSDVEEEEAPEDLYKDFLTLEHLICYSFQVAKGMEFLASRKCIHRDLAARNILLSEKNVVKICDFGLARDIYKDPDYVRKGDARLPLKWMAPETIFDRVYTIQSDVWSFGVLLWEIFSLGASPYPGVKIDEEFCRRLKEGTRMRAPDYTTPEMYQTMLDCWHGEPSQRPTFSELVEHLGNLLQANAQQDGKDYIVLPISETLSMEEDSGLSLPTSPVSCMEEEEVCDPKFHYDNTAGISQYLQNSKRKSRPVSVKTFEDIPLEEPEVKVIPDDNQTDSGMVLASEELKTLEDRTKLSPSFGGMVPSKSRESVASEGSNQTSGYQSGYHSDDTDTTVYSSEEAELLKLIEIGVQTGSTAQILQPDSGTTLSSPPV
Chain of WNK1 (Q9H4A3 whole entry, species assumed): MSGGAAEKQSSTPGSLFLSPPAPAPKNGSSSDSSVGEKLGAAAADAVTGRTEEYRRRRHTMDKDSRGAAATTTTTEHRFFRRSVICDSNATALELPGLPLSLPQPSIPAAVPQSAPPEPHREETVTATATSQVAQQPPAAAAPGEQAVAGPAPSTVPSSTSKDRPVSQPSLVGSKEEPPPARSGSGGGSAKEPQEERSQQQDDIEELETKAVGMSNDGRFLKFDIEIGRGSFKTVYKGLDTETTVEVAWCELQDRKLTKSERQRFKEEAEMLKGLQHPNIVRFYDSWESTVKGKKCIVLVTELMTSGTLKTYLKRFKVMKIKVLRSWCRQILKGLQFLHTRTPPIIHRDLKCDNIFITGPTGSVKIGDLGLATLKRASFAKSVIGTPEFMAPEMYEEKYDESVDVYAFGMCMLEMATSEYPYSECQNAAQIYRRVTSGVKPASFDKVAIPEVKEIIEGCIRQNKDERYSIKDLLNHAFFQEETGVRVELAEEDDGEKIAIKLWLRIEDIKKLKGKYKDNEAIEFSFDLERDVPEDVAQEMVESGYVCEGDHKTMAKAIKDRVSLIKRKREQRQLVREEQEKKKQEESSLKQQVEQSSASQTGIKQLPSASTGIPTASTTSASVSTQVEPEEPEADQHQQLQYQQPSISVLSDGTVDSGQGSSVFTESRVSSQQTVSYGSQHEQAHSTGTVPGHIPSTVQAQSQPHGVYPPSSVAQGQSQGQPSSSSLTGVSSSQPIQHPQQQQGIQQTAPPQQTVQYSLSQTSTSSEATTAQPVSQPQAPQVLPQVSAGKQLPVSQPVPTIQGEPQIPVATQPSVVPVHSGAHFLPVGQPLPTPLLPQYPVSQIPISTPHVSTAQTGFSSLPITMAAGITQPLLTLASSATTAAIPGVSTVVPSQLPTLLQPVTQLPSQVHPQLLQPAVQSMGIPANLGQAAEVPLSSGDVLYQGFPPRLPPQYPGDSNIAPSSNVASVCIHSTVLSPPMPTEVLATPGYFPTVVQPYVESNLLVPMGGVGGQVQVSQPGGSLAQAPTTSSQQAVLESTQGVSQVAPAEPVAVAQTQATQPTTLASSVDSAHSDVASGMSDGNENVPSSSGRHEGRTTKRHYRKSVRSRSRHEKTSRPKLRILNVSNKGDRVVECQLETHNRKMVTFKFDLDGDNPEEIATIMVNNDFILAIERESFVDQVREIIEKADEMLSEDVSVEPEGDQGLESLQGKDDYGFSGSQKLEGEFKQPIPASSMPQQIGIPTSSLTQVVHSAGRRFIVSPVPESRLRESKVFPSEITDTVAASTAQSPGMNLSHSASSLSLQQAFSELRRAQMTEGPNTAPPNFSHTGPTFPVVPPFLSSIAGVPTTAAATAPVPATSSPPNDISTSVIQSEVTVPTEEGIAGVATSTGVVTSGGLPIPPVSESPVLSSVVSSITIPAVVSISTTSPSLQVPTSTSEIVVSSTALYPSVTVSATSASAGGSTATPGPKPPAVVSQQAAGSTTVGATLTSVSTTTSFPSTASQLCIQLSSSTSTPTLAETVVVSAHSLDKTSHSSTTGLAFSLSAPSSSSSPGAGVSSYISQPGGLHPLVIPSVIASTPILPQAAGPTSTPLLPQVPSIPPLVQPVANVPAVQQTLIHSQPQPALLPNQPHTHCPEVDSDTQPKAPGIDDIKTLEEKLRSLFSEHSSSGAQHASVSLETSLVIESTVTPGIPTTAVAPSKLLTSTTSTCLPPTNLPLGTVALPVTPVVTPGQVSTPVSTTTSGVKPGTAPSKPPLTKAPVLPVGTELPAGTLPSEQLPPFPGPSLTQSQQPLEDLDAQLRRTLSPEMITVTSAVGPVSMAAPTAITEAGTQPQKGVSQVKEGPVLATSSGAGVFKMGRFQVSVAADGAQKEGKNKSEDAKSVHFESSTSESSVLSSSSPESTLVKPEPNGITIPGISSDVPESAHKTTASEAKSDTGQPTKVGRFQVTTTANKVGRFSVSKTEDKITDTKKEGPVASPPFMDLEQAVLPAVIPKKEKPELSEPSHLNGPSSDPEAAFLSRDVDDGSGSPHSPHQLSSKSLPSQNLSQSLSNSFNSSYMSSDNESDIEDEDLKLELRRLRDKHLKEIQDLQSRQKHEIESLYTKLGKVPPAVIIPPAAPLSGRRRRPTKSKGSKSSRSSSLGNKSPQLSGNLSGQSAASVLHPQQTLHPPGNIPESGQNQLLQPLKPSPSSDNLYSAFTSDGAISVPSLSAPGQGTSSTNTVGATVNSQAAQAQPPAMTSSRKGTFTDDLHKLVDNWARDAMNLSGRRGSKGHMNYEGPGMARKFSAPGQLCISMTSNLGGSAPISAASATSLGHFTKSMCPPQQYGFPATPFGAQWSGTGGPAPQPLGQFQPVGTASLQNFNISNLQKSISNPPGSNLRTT

| SMILES | % enzyme activity (WNK1) | remaining activity at 1 µM (OSR1/OXSR1) | remaining activity at 1 µM (KDR/VEGFR2) | % enzyme activity (TAOK3/JIK) | remaining activity at 1 µM (TNK1) | % enzyme activity (P38d/MAPK13) | remaining activity at 1 µM (GRK2) | % enzyme activity (COT1/MAP3K8) | % enzyme activity (GRK6) |
| --- | --- | --- | --- | --- | --- | --- | --- | --- | --- |
| COc1cc(-c2cncc(-c3ccc(N4CCN(C)CC4)cc3)c2C)cc(F)c1C(N)=O [Compound 26a, 2-Fluoro-6-methoxy-4-(4-methyl-5-(4-(4-methylpiperazin-1-yl)phenyl)pyridin-3-yl)benzamide] | 107.33% | 93.4% | 95.9% | 69.26% | 105% | 98.26% | 105% | 90.60% | 107.43% |
| COc1cc(-c2cncc(-c3ccc(N4C[C@@H](C)N(C)[C@@H](C)C4)cc3)c2C)cc(F)c1C(N)=O [Compound 26c, 2-Fluoro-6-methoxy-4-(4-methyl-5-(4-((3R,5S)-3,4,5-trimethylpiperazin-1-yl)phenyl)pyridin-3-yl)benzamide] | 102.29% | 95% | 88.4% | 81.51% | 98.6% | 97.52% | 101% | 93.89% | 94.12% |
